In PMC8911640, “Synthesis and Structure–Activity Relationship of Thioacetamide-Triazoles against Escherichia coli” (Molecules, 2022):
Values after ≈ are worked out from the molar mass of the structure shown. Values joined by “and” are separate entries in the source; they are usually repeats but may differ in a detail not shown here. Identical values can stand only once. Like-named read-outs stand apart in the source and are kept apart here.

Assays:
E. coli K12 MG1655 = assay: MIC testing by CLSI broth microdilution in M9-based minimal media ATCC 2511, with or without methionine; format: cell-based, Escherichia coli; settings: for MIC90: Escherichia coli; for antibacterial activity against E. coli in words: E. coli K12
Experimental: To explore the SAR around the right hand aryl portion of the TAT series (Table 1), compounds were evaluated for their in vitro antibacterial activity against E. coli in the M9-based minimal media ATCC 2511. […]. An MIC shift between the two medias was used to indicate that antibacterial activity of the compounds remained on target, and this was happily seen with all of the most MIC active compounds generated in this study. Within the first series of compounds in Table 1, modifications to the phenyl ring are generally well tolerated. MICs remain within 2-fold of the initial hit 1 for the fluoro- and cyano- substituted compounds 1–8. […]. Incorporating the electron-donating group -OMe and sterically bulky iodine group in both ortho and para position, 17–20, maintained activity, whereas the introduction of the strong electron-withdrawing -CF3 group, 21 and 22, led to poorer MIC activity. […] The phenyl ring isosteres—thiazoles 25 and 26—both retained good MIC activity. Adding a methyl branch to the thioacetamide linker 28 and 29 led to a striking loss of activity. Replacement of the aryl group with the aliphatic groups cyclohexyl 31, cyclopentyl 32, tert-butyl groups 33 all reduced activity.
MICs were determined following CLSI broth microdilution susceptibility M100 guidelines. Compound solutions were prepared in DMSO and serially diluted 1:2 in 100 μL/well in 96 well round-bottom plates. E. coli K12 MG1655 was acquired from ATCC and strictly maintained in the M9-based media ATCC 2511. ATCC 2511 was also used for all further cultivation and MIC testing. Bacteria were grown from a single colony to a mid-log OD600 and frozen in 0.5 mL aliquots. These aliquots were used to directly inoculate the assay plates by diluting to an OD600 of 0.001 and plating 100 μL per well, allowing for ~10^5 CFU to be added to each well.

Solubility = format: physicochemical; settings: for solubility: pH 7.4, aqueous buffer
Experimental: (§1) The in vitro ADME values (solubility, mouse plasma stability, human plasma stability, mouse metabolic stability, and human metabolic stability) were determined as previously reported.

Plasma stability (mouse) = format: in vitro ADME; settings: read-out: Plasma Stability (Mouse) t1/2 (converted)
Experimental: as §1

Plasma stability (human) = format: in vitro ADME; settings: read-out: Plasma Stability (Human) t1/2 (converted)
Experimental: as §1

[1] = Metabolic (microsomal) stability (mouse); format: in vitro ADME; settings: microsomes; for half-life: read-out: Metabolic Stability (Mouse) t1/2 (converted)
Experimental: as §1

[2] = Metabolic (microsomal) stability (human); format: in vitro ADME; settings: microsomes; for half-life: read-out: Metabolic Stability (Human) t1/2 (converted)
Experimental: as §1

E. coli K12 = assay: Whole cell accumulation in E. coli K12 (LC-MS/MS); design: dose or concentration left out as unconfirmed; settings: 10 min, 37 °C; average of three biological replicates
Experimental: Drug uptake in whole cell E. coli K12, was performed following a modified protocol adapted from previously published studies [17, 25, 26, 27]. […] After incubation, 800 mL of antibiotic-exposed cells were spun (3 min, 13,000× g) through 700 mL of a 9:1 mix of AR20 and high temperature silicon oils (cooled to −80°C). The supernatant of silicone oil and free compound in PBS was carefully removed from pellet. Intracellular concentration of antibiotics within the bacterial cells was then determined.
For lysis, cells were resuspended in 200 mL of water and lysed by three freeze-thaw cycles of 3 min each in liquid nitrogen and in a 60 °C water bath. Lysed cells were pelleted and 150 mL of aqueous extract was transferred to a clean 1.5 mL microcentrifuge tube. Cell debris was resuspended in the remaining 50 mL of water and then extracted with 100 mL of methanol. Cells were again centrifuged, 100 mL of the methanol extract were removed and combined with the water supernatant. The extracts were allowed to rest at room temperature for 1 h before being centrifuged for 10 min at 20,000× g. Finally, extracts were filtered through a 0.22mm spin column to remove any remaining cellular debris.
Samples were analyzed with a Waters Acquity M Class series UPLC system and Xevo G2 QTOF tandem MS/MS with Zspray. Using a Phenomenex Kinetex 2.6 μm XB-C18, 100 Å (300 μm × 150 mm) column with solvent A, 0.1% formic acid in water, and solvent B, 0.1% formic acid in acetonitrile, 250 nL of extract were separated. […] High-resolution spectra were calibrated by co-infusion of 2 ng/mL leucine enkephalin lockspray (Waters). Data were quantified using Waters MassLynx software where the AUC was determined by integrating the daughter peak of the parent ion. Concentrations of the unknown compounds were determined by the linear fit of the standard curve. Concentrations were normalized to the culture density, determined via titers, to 10^10 CFU and are reported as the average of three biological replicates.

[3] = Pharmacokinetic evaluation in mice, single intravenous dose; format: in vivo; settings: 10 mg/kg, plasma
Experimental: Pharmacokinetic parameters of 25 in plasma following a single intravenous dose of 10mg/kg administration to male Balb/c mice were done at SAI LifeSciences Ltd., Telangana, India (Table S2). Briefly, nine male mice were used in this study. All the animals were administered with 25 solution formulation in 5% NMP, 5% Solutol HS-15 and 90% Normal saline intravenously at 10 mg/kg dose. Blood samples (~60 μL) were collected from retro orbital plexus under light isoflurane anesthesia at following time points at Pre-dose, 0.08, 0.25, 0.5, 1, 2, 4, 8 and 24 h. Blood samples were collected from a set of three mice at each time point (sparse sampling) in labeled microcentrifuge tube containing 20% K2EDTA solution as anticoagulant. Plasma samples were separated by centrifugation of whole blood and stored below −70 ± 10 °C until bioanalysis. All samples were processed for analysis by protein precipitation using acetonitrile (ACN) and analyzed with fit-for-purpose LC/MS/MS method (LLOQ: 5.04 ng/mL). Pharmacokinetic parameters were calculated using the non-compartmental analysis tool of Phoenix WinNonlin (Version 7.0). All procedures of the study were in accordance with the guidelines provided by the Committee for the Purpose of Control and Supervision of Experiments on Animals (CPCSEA) as published in The Gazette of India, 15 December 1998. Prior approval of the Institutional Animal Ethics Committee (IAEC) was obtained before initiation of the study.

[4] = MG1655, read-out: E. coli K12 MIC90
[5] = No Supplement (N.S.), ATCC 2511 media, 16 h, 37 °C, read-out: E. coli K12 MIC90
[6] = pH 7.4 (Table S1), read-out: Solubility Avg. Sol
[7] = pH = 7.4, average of triplicate ± standard deviation, read-out: Avg. Sol
[8] = No Supplement (N.S.), ATCC 2511 media, 16 h, 37 °C
[9] = pH = 7.4, average of triplicate ± standard deviation

| SMILES | MIC90 (E. coli K12 MG1655; [4]) [µg/mL] | MIC90 (E. coli K12 MG1655; [5]) [µg/mL] | %Soluble (Solubility; pH 7.4 (Table S1)) [%] | solubility (Solubility; [6]) | solubility (Solubility; [7]) [µg/mL] | half-life (Plasma stability (mouse)) [h] | half-life (Plasma stability (human)) [h] | CLint scaled [1] [mL/min/kg] | half-life [1] [h] | CLint scaled [2] [mL/min/kg] | half-life [2] [h] | E. coli K12 MIC90 (E. coli K12 MG1655; [8]) [µg/mL] | also measured |
| --- | --- | --- | --- | --- | --- | --- | --- | --- | --- | --- | --- | --- | --- |
| O=C(CSc1cnn[nH]1)Nc1ccc(F)cc1 [Compound 2] | 12.5 (≈ 49.5 µM) | 3.1 (≈ 12.3 µM) | 73.4 | 18.5 µg/mL and 73.4 µM | 18 ± 2.3 (≈ 71.4 µM) | 2.5 ± 0.2 | 36.3 ± 5.5 | 87.4 | 0.65 ± 0.03 | 4.4 | 4.7 ± 0.4 |  |  |
| O=C(CSc1cnn[nH]1)Nc1ccccn1 [Compound 9] | 12.5 (≈ 53.1 µM) | 1.6 (≈ 6.8 µM) | 87.4 | 20.6 µg/mL and 87.4 µM | 20 ± 0.3 (≈ 85 µM) | 2.7 ± 0.2 | 19.9 ± 1.9 | 80.4 | 0.71 ± 0.02 | 7.7 | 2.7 ± 0.2 | ≤ 3.1 |  |
| O=C(CSc1cnn[nH]1)Nc1ccccc1F [Compound 1] | 12.5 (≈ 49.5 µM) | 1.6 (≈ 6.34 µM) | 65.2 | 16.4 µg/mL and 65.2 µM | 16 ± 0.8 (≈ 63.4 µM) | 0.39 ± 0.01 | 34.8 ± 0.3 | 209 | 0.27 ± 0.01 | 7 | 3 ± 0.2 | ≤ 3.1 |  |
| O=C(NCCSc1cnn[nH]1)c1ccccc1F [Compound 58] |  | 12.5 (≈ 46.9 µM) |  |  |  |  |  |  |  |  |  |  | antibacterial activity against E. coli in words (E. coli K12 MG1655): moderate activity; Whole Cell Accumulation in E. coli (E. coli K12): 7.0 ± 1 μM/10^10 CFU |
| N#Cc1ccccc1NC(=O)CSc1cnn[nH]1 [Compound 3] | 12.5 (≈ 48.2 µM) | 3.1 (≈ 12 µM) | 73.3 | 19 µg/mL and 73.3 µM |  | 1.1 ± 0.02 | 23 ± 1.1 | 50.5 | 1.13 ± 0.05 | 5.7 | 3.7 ± 0.3 |  | Avg. Sol (Solubility; [9]): 19 ± 1.5 µg/mL |
| O=C(CSc1cnn[nH]1)Nc1nccs1 [Compound 25] | 12.5 (≈ 51.8 µM) | 3.1 (≈ 12.8 µM) | 87.3 | 21.1 µg/mL and 87.3 µM |  | 13.3 ± 1.6 | 32.1 ± 5.4 | 29.1 | 2 ± 0.1 | 5.8 | 3.6 ± 0.3 | ≤ 3.1 | Avg. Sol (Solubility; [9]): 21 ± 1.8 µg/mL; AUCinf ([3]; male Balb/c mice): 2807 ng·h/mL; AUC(0-inf) ([3]; male, Balb/c, mouse, iv): 2810 ng·h/mL; AUC(0-t) ([3]; mouse, male Balb/c mice): 2800 ng·h/mL; C0 ([3]; mouse, male Balb/c mice): 7710 ng/mL; clearance ([3]; mouse, male Balb/c mice): 59.4 mL/min/kg; half-life ([3]; mouse, male Balb/c mice, read-out: T(1/2), elimination half-life (converted)): 0.55 h; Vd ([3]; mouse, male Balb/c mice, read-out: Vss): 1.16 L/kg |
| O=C(NCCSc1cnn[nH]1)c1ccc(O)c(O)c1 [Compound 59] |  | 50 (≈ 178 µM) |  |  |  |  |  |  |  |  |  |  | antibacterial activity against E. coli in words (E. coli K12 MG1655): moderate activity; Whole Cell Accumulation in E. coli (E. coli K12): 1.0 ± 0.1 μM/10^10 CFU |
